In paper PMC11995724, “Antibiotic target discovery by integrated phenotypic and activity-based profiling of electrophilic fragments” (Cell chemical biology, 2025):

Assay: in vitro
Conditions: human, hek293t cells

C=CC(=O)N1CCC(c2nc(C(=O)O)co2)CC1 [2-K03, 2-[1-(prop-2-enoyl)piperidin-4-yl]-1,3-oxazole-4-carboxylic acid] showed a viability at 48 h, 25 µM of 99.1%.

For C=CC(=O)N1CCC(C(=O)N[C@H]2CCC[C@H]2O)CC1 [2-K04, N-[(1S,2R)-2-hydroxycyclopentyl]-1-(prop-2-enoyl)piperidine-4-carboxamide], the viability at 48 h, 25 µM was 84.2%.

C=CC(=O)N(Cc1ccc(Cl)o1)C1CCCC12CCOCC2 (centres unmarked) [2-K05, N-[(5-chlorofuran-2-yl)methyl]-N-{8-oxaspiro[4.5]decan-1-yl}prop-2-enamide] gave a viability at 48 h, 25 µM of 99.7%.

With C=CC(=O)N1C2CCCC1CC1(C2)NC(=O)NC1=O (centres unmarked) [2-K06, 9-(prop-2-enoyl)-9-azaspiro[bicyclo[3.3.1]nonane-3,4'-imidazolidine]-2',5'-dione] the viability at 48 h, 25 µM was 89.2%.

C=CC(=O)N1CCCCC1Cn1ccnn1 (centres unmarked) [2-K07, 1-{2-[(1H-1,2,3-triazol-1-yl)methyl]piperidin-1-yl}prop-2-en-1-one] gave a viability at 48 h, 25 µM of 89.3%.

For C=CC(=O)NCCC(=O)N1CCSC(C)CC1 (centres unmarked) [2-K08, N-[3-(7-methyl-1,4-thiazepan-4-yl)-3-oxopropyl]prop-2-enamide], the viability at 48 h, 25 µM was 91.8%.

In the case of C=CC(=O)N1CCC(c2nc(N(C)C)no2)CC1 [2-K09, 1-{4-[3-(dimethylamino)-1,2,4-oxadiazol-5-yl]piperidin-1-yl}prop-2-en-1-one], the viability at 48 h, 25 µM is reported as 194%.

In the case of C=CC(=O)N(C)CC(=O)N1CCn2cccc2C1C (centres unmarked) [2-K10, N-methyl-N-(2-{1-methyl-1H,2H,3H,4H-pyrrolo[1,2-a]pyrazin-2-yl}-2-oxoethyl)prop-2-enamide], the viability at 48 h, 25 µM is reported as 101%.

Work on C=CC(=O)Nc1ccc(F)c(-n2nnnc2C)c1 [2-K11, N-[4-fluoro-3-(5-methyl-1H-1,2,3,4-tetrazol-1-yl)phenyl]prop-2-enamide] yielded a viability at 48 h, 25 µM of 195%.

Compound C=CC(=O)N1CCCC(c2nc(C)no2)C1 (centres unmarked) [2-K12, 1-[3-(3-methyl-1,2,4-oxadiazol-5-yl)piperidin-1-yl]prop-2-en-1-one] has a viability at 48 h, 25 µM of 101%.

With C=CC(=O)Nc1ccnn1C1CCCC1 [2-K13, N-(1-cyclopentyl-1H-pyrazol-5-yl)prop-2-enamide] the viability at 48 h, 25 µM was 24%.

With C=CC(=O)NC(Cc1ccccc1)c1ccccn1 (centres unmarked) [2-K14, N-[2-phenyl-1-(pyridin-2-yl)ethyl]prop-2-enamide] the viability at 48 h, 25 µM was 113%.

Compound C=CC(=O)N1CCC(C(=O)Nc2nc3cc(F)c(C)cc3s2)CC1 [2-K15, N-(5-fluoro-6-methyl-1,3-benzothiazol-2-yl)-1-(prop-2-enoyl)piperidine-4-carboxamide] has a viability at 48 h, 25 µM of 191%.

Compound C=CC(=O)Nc1ccc2nc(O)n(C3CC3)c2c1 [2-K16, N-(1-cyclopropyl-2-hydroxy-1H-1,3-benzodiazol-6-yl)prop-2-enamide] has a viability at 48 h, 25 µM of 83.3%.

With C=CC(=O)N1CCC(NC(=O)c2oc(C)cc2C)CC1 [2-K17, 3,5-dimethyl-N-[1-(prop-2-enoyl)piperidin-4-yl]furan-2-carboxamide] the viability at 48 h, 25 µM was 79.7%.

Work on C=CC(=O)N1CCC(C(=O)NC2CCCc3cc(F)ccc32)CC1 (centres unmarked) [2-K18, N-(6-fluoro-1,2,3,4-tetrahydronaphthalen-1-yl)-1-(prop-2-enoyl)piperidine-4-carboxamide] yielded a viability at 48 h, 25 µM of 94.2%.

Work on C=CC(=O)N[C@H]1CCO[C@@H]1c1ccnn1C [2-K19, N-[(2S,3S)-2-(1-methyl-1H-pyrazol-5-yl)oxolan-3-yl]prop-2-enamide] yielded a viability at 48 h, 25 µM of 96.4%.

For C=CC(=O)N1CCC(C(=O)N(C)C(C)CC(N)=O)CC1 (centres unmarked) [2-K20, 3-{N-methyl-1-[1-(prop-2-enoyl)piperidin-4-yl]formamido}butanamide], the viability at 48 h, 25 µM was 88.3%.

In the case of C=CC(=O)Nc1ccc(C(=O)NCC2CSCCS2)cc1 (centres unmarked) [2-K21, N-[(1,4-dithian-2-yl)methyl]-4-(prop-2-enamido)benzamide], the viability at 48 h, 25 µM is reported as 91.9%.

In the case of C=CC(=O)N(C)Cc1nc2c(n1C)CCCC2 [2-K22, N-methyl-N-[(1-methyl-4,5,6,7-tetrahydro-1H-1,3-benzodiazol-2-yl)methyl]prop-2-enamide], the viability at 48 h, 25 µM is reported as 87.1%.
